Results reported in a melting point compilation (Tetko et al.; mined from patent text by program, amines drawn as free bases though some values may be those of a salt).

| SMILES | melting point |
| --- | --- |
| CCOC(=O)c1c(-c2ccc(F)cc2)c2nccnc2c(=O)n1C | 221 to 222 °C |
| C=CCc1cc(Br)ccc1OCC(=O)OCC | 70.5 °C |
| CC(=O)Nc1nc(CCc2ccc(CN3CCNCC3)cc2)cs1 | 164 to 166 °C |
| CCOCc1nc2c(N)nc3cc(O)ccc3c2n1CC(C)(C)NC(C)=O | 140 °C |
| CCCCNC(=O)NC1CCNCC1 | 132 to 134 °C |
| O=c1c(-c2ccccc2)c[nH]cc1-c1ccccc1 | > 335 °C |
| O=c1ccccn1C(c1ccccc1)c1ccccc1 | 142 to 145 °C |
| Oc1ccc(Cc2ccccc2)c2cccnc12 | 112 to 113 °C |
| COCCc1sc2ncnc(N)c2c1-c1ccc(NC(=O)Nc2ccc(C)cc2)cc1 | 128 to 132 °C |
| Cc1nc(C)c(=O)n(CCO)c1C | 140 to 144 °C |
| CC1c2cccn2-c2ccc(Br)cc2N1S(=O)(=O)c1ccc(O)cc1 (centres undefined) | 204 to 206 °C |
| COc1cc(Nc2nccc(-c3ccc(NCCC4CCCN4C)nc3)n2)cc(OC)c1OC (centres undefined) | 176 to 177 °C |
| O=C(NCCc1ccccc1)Nc1ccc(CN2C(=O)[C@H]3CCC[C@H]3N(C(=O)CCl)c3ccccc32)cc1 (relative stereo) | 224 to 226 °C |
| N#CCCc1cncnc1N[C@H]1CC[C@@H](c2ccccc2)CC1 | 58 to 59 °C |
| N#Cc1nn(-c2c(Cl)cc(C(F)(F)F)cc2Cl)c(Cl)c1C=O | 145 to 146 °C |
| CCc1c(Cc2ccccc2)[nH]c(=O)[nH]c1=O | 73 to 74 °C |
| Cc1nc2c(s1)C(=O)C(=CN1CCOCC1)CC2 | 186 to 187 °C |
| CCN1c2ncccc2C(NC)=Nc2c(C)cc(C)nc21 | 128 to 130 °C |
| O=C(O)Cn1c(=O)n(S(=O)(=O)c2ccc(Cl)cc2)c(=O)c2ccc(Cl)cc21 | 194 to 195 °C |
| O=C1CCN(Cc2ccc3ccccc3n2)CC1C(c1ccc(F)cc1)c1ccc(F)cc1 (centres undefined) | 188 to 189 °C |
| CC(=Cc1c[nH]c2ccc3c(c12)CCCO3)[N+](=O)[O-] | 246 to 247 °C |
| C[C@@H](S[C@H]1CO[C@H](/C=C/c2ccc(C(F)(F)F)cc2)OC1)[C@](O)(Cn1cncn1)c1ccc(F)cc1F | 73 to 75 °C |
| O=C(c1ccc2c(c1)Cc1ccccc1-2)N1Cc2cccn2Cc2ccccc21 | 202 to 204 °C |
| CC(C)(CO)COc1ccc(N)cc1C#N | 194 to 196 °C |
| CNC(=O)c1ccccc1CCc1ccc(Br)cc1 | 138 to 141 °C |

| SMILES | melting point |
| --- | --- |
| COCCCCNC(=O)C(c1ccccc1)c1ccccc1 | 75.5 to 76.8 °C |
| CC(C)(C)OC(=O)N1CCn2c(-c3ccccc3)cc(C(N)=O)c2C1 | 208 to 210 °C |
| CCCCC(=O)CC1c2ccccc2C(=O)N1c1ccc2ccc(OC)nc2n1 (centres undefined) | 161 °C |
| OC(CNc1ccc(Cl)cc1)Cn1ccnc1 (centres undefined) | 123 to 125 °C |
| Nc1cc(C(=O)O)cc(OCc2ccc(Cl)cc2)c1Cc1ccccc1 | 199 to 200 °C |
| CCCC(C)(N)Cc1c[nH]c2ccccc12 (centres undefined) | 73.5 to 74.5 °C |
| COc1cc(COc2cccc(CC(=O)O)c2-c2cccc(C(=O)O)c2)ccc1C12CC3CC(CC(C3)C1)C2 | 240 to 242 °C |
| Cn1ccnc1C(O)(c1ccc(Cl)cc1)c1ccc(Cl)cc1 | 190 to 191 °C |
| CCc1nc2c(N)nc3ccccc3c2s1 | 170 to 172 °C |
| O=C(CCl)Nc1cccc(NC(=O)Nc2ccc(N(CCCl)CCCl)cc2)c1 | 232 to 233 °C |
| CN1Cc2c(CO)ncn2-c2ccc(F)cc2C1=O | 221 to 223 °C |
| CC[N+](CC)(CC)C1CC(=O)N1C(C(=O)OCc1ccc([N+](=O)[O-])cc1)=C([O-])CCSC (centres undefined) | 91 °C |
| O=C1NC(=O)C(=Cc2ccc(OCCNc3ncccn3)cc2)S1 | 234 °C |
| CCN1C(=O)CSC1=NOC(=O)NCCCl | 99 to 102 °C |
| COc1ccc(C(=O)N2c3ccccc3C(N3CCCc4cc(NC(=O)OC(C)(C)C)ccc43)CC2C)cc1OC (centres undefined) | 192 to 193 °C |
| Cc1nn(-c2cncc(F)c2)cc1[N+](=O)[O-] | 90 to 92 °C |
| O=c1[nH]c2sccc2c(=O)n1CCN1CCC(=C(c2ccc(F)cc2)c2ccc(F)cc2)CC1 | 205 to 207 °C |
| CCOC(=O)C1(NC=O)Cc2cccc3c2N(CCC3)C1=O (centres undefined) | 103 to 106 °C |
| CCCCCCCCCCCCCCOc1ccc2c(C)c(C(=O)O)oc2c1 | 105 to 108 °C |
| O=C(NO)c1ccc(CNC(=O)c2[nH]c(-c3cccs3)cc2-c2ccc(F)cc2)cc1 | 214 to 216 °C |
| NC(=O)c1nc(-c2cccc(O)c2)nc2c1[nH]c(=O)n2[C@@H]1CCOC1 | 353 to 355 °C |
| CCCC(=O)Nc1n[nH]c2cc(Cl)ccc12 | 230 °C |
| CCCCc1ncc(/C=C(/C=C/C(=O)O)Cc2cccs2)n1Cc1ccccc1Cl | 191 to 192 °C |
| COc1ccccc1Sc1c(O)nc[nH]c1=O | 291 °C |
| N#CCCC(=O)c1cccc(Cl)c1 | 49 to 51 °C |

| SMILES | melting point |
| --- | --- |
| CC(C)(C)CN(CC(C)(C)C)C(=O)C(O)(C(=O)O)c1ccc(Cl)c(Cl)c1 (centres undefined) | 94 to 95 °C |
| CC(C)Cn1c(=O)n(C)c(=O)c2c(Sc3cccc(O)c3)n(Cc3cccc4ccccc34)cc21 | 150 to 151 °C |
| O=c1ccc2ccc(OCC(O)CO)cc2o1 (centres undefined) | 118 to 120 °C |
| Cc1cc(N2CCN(C(=O)NCCCCC3CCSS3)CC2)ccc1N=C(N)c1cccs1 (centres undefined) | 169 to 171 °C |
| CCOC(=O)Cn1c(=S)c2ccccc2n(Cc2ccc(Br)cc2F)c1=O | 109 to 110 °C |
| COc1ccc2cccc(CC(=O)O)c2c1 | 154 to 156 °C |
| Cc1noc(NS(=O)(=O)c2c(Cl)sc(Cl)c2Br)c1Br | 146 to 149 °C |
| C(=C(c1ccccc1)c1ccccc1)c1ccc(N(c2ccccc2)c2ccc(N(c3ccccc3)c3ccccc3)cc2)cc1 | 218 to 219 °C |
| CCCCOCCCNC(=O)c1cnc(C(=O)NCC(=O)OCc2ccccc2)c(OC)c1 | 97 to 99 °C |
| NC(=O)N1C(=O)Cc2ccc(-c3ccccc3)cc21 | 188 to 189 °C |
| CCCc1nc2c(C)cc(C)nc2n1C1CCc2cc(-c3ccccc3-c3nnn[nH]3)ccc21 (centres undefined) | 173 °C |
| CN(C)C(=O)c1ccc2c(c1)C(c1ncnc3cc(OCCCN4CCOCC4)ccc13)C(=O)N2 (centres undefined) | 168 to 169 °C |
| Cc1cccc(Cl)c1NS(=O)(=O)c1nc(N)n(C(=O)Oc2ccccc2)n1 | 200 °C |
| COc1ccc(-c2oncc2CCC(=O)O)cc1OC | 169 to 170 °C |
| Nc1ncccc1-c1nc2cccnc2n1-c1ccc(CNC(=O)c2ccccn2)cc1 | 172 to 174 °C |
| Cc1nc2c(OCc3c(Cl)ccc(N(C)C(=O)CN4C(=O)c5ccccc5C4=O)c3Cl)cccn2c1Br | 229 to 230 °C |
| COC(=O)c1c(C)[nH]c(C)c1C1=CC(=O)c2cccc(O)c2C1=O | 98 to 99 °C |
| CC(C)C(CNC(=O)OCc1ccccc1)C(=O)O (centres undefined) | 75.5 to 78.5 °C |
| CCOC(=O)c1cnc(-c2ccccc2OCC2CC2)[nH]c1=O | 104 to 105 °C |
| COC(OC)C(=O)NC1CCN(C[C@@]23C[C@@H](c4ccccc42)c2ccc(Cl)cc23)CC1 | 188 to 189 °C |
| CCCCCc1ccc(-c2ccc(CCC3(C#N)CCCC(C)C3)cc2)cc1 (centres undefined) | 73 °C |
| COc1ccccc1S(=O)(=O)N(C)c1cccc2cc(C3=NCC(CC(N)=O)S3)[nH]c12 (centres undefined) | 227 to 228 °C |
| CCCCCCCCCCCCn1nnc(CCC(=O)OC)n1 | 39 to 42 °C |
| CCOC(=O)c1c(N2CCN(C(=O)c3ccco3)CC2)c2sccc2n(CC(=O)c2ccccc2)c1=O | 246 °C |
| Cc1ccc(C(=O)OC2CCN(Cc3cccc(N)c3)CC2)cc1 | 100 to 102 °C |

| SMILES | melting point |
| --- | --- |
| O=S(=O)(c1nc2c([nH]1)-c1ccc(F)cc1Oc1ccccc1-2)C(F)(F)C(F)F | 171 to 173 °C |
| OC12CCCC1N=C(S)N2c1ccccn1 (centres undefined) | 126 to 127 °C |
| CCCCc1csc2ccc3[nH]c4c(c3c12)CN(C(C)C)CC4 | 157 to 158 °C |
| O=C(/C=C/c1ccn(S(=O)(=O)c2ccc(-c3ccccn3)s2)c1)NO | 181 to 182 °C |
| Nc1nc(=O)n(C2OC(CO)CC2O)cc1F (centres undefined) | 137 to 138 °C |
| Cc1cc(C)cc(Sc2c(C)c[nH]c(=O)c2N)c1 | 208 to 210 °C |
| O=S(=O)(Nc1ccc2c(OCc3nc(-c4ccc(F)cc4)sc3Br)cccc2c1)C(F)(F)F | 139 to 140 °C |
| O=S(=O)(NCc1ccccc1)c1cccc(-c2cc(-c3nc(-c4ccc(C(F)(F)F)cc4)cc(C(F)(F)F)n3)ccn2)c1 | 202 °C |
| CCOc1ccccc1-c1nc2c(C(N)=O)cccc2c(=O)[nH]1 | 252 to 254 °C |
| CC(=O)Nc1cccc2c1C(=O)OC2C (centres undefined) | 112 °C |
| CCC(C)C(OCc1ccccc1)C1C(C(=O)NCC(=O)O)NC(C2CC2)C1[N+](=O)[O-] (centres undefined) | 161 to 163 °C |
| N#Cc1ccc(-c2cnc3[nH]c(=O)n(CC4CCCCC4)c3n2)cc1 | 255 to 257 °C |
| O=Cc1cnc(Nc2n[nH]c3ccc(-c4ncccc4Cl)cc23)s1 | 223 to 224 °C |
| COc1cc(C(C)=O)cc(OC)c1OCCCN1CCC(c2noc3cc(F)ccc23)CC1 | 107 to 108 °C |
| CN1CCn2c(-c3ccc(F)c(-c4ccc(F)cc4C#N)c3)cnc2C1=O | 224 °C |
| c1ccc2c(c1)CCC(n1ccnc1)C2 (centres undefined) | 93 to 95 °C |
| COC(=O)C(=CNc1ccc(F)c(F)c1OCC(C)O)C(=O)OC (centres undefined) | 107 to 108 °C |
| CCOC(=O)Cn1c(CC)nc2nc3cc(Cl)ccc3nc21 | 174 to 175 °C |
| O=[N+]([O-])c1cc(Cn2nnnc2Sc2ccccc2)cc([N+](=O)[O-])c1 | 156 to 158 °C |
| Cc1cc(-c2[nH]c3ccccc3c2C)cc(C)c1O | 143 to 144 °C |
| CCCN(c1nc(-c2ccc(OC)cc2Cl)c(C)s1)c1cc(CO)ccc1OC | 115 °C |
| NC(=O)C1(c2ccn(C(CC(=O)OCc3ccccc3)C(=O)NC(CO)Cc3ccccc3)c2)C=CC(c2ccccc2)=CC1 (centres undefined) | 192 to 194 °C |
| COc1cc2c(cc1C(F)(F)F)N(C(=O)Nc1ccc(Oc3cccnc3)nc1)CC2 | 202 to 204 °C |
| O=C(O)Cn1c(=O)c(=O)[nH]c2ccc3ccc(-n4ccc(CNC(=O)Nc5ccccc5)c4)cc3c21 | > 230 °C |
